The source of these data is patent US20210322442A1, “LONG-TERM RE-ABSORBABLE SU[…] WITH CONTROLED PRE-CONCENTRATED PHARMACOLOGICALLY ACTIVE POLYMER SUBSTANCE RELEASE FOR TREATING ENDOMETRIOSIS” (priority 2020, published 2021).

The subject of series [1] is endometriosis. Put plainly: clinical follow-up of about 1,000 patients treated with gestrinone implants. Type of series: in vivo. On the procedure:
Research was conducted to assess the effectiveness of using the gestrinone implants described here for the treatment of endometriosis. About 1,000 patients with different degrees of the disease were followed up in clinical practice and the dose used was 1 to 3 implants. […] In these patients, treatment can be used only.

For series [2], the system named is endometriosis. Conditions: cited from earlier work.

The structures appear in SMILES notation.

In the case of `C#C[C@]1(O)CC[C@H]2[C@@H]3CCC4=CC(=O)CCC4=C3C=C[C@@]21CC` [gestrinone], the “carrier protein SHBG in the patient” value with endometriosis [1] (mechanism of action, stated with an increase in free circulating testosterone) is “reduction in the carrier protein SHBG”. In addition, the “quality of life of patients” value in the series with endometriosis [1] (observed in practice: mood, libido, reasoning and decision making capacity, lean mass) is “improves the quality of life of patients as a whole”. The free circulating testosterone result with endometriosis [1] (result of SHBG reduction) is given as “increase in free circulating testosterone”. Also, in the series on endometriosis [2], the “tolerability, oral dose” value was “up to 5 mg three times a week”.
